Experimental data: patent US20240270741A1 (Cogent Biosciences, Inc., priority 2023, published 2024)

Biological target: FGFR2 (Homo sapiens, UniProt P21802)
Test: FGFR wild type enzyme assay (HTRF KinEASE-TK), FGFR2
Settings: Enz FGFR2 (nM), FGFR2 wild type enzyme assay

Chain of FGFR2 (P21802 399-821 limits assumed): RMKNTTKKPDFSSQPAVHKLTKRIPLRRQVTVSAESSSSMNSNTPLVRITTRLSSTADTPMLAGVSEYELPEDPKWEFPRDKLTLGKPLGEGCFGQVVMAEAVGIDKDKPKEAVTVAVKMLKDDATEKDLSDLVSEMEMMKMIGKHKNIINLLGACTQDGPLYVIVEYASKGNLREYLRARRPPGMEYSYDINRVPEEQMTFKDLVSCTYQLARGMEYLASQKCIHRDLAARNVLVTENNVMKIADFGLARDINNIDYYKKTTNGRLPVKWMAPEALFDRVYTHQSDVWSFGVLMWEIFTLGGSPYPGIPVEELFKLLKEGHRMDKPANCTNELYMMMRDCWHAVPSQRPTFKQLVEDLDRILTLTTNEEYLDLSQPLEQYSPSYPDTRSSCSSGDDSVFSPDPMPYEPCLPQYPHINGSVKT

Compared with `Cc1c(-c2cc(Sc3ccc(F)cc3C#N)c3c(C#N)cnn3c2)cnn1[C@H]1CCC[C@@H](O)C1` [Example 498, 4-((2-cyano-4-fluorophenyl)thio)-6-(1-((1S,3R)-3-hydroxycyclohexyl)-5-methyl-1H-pyrazol-4-yl)pyrazolo[1,5-a]pyridine-3-carbonitrile], `Cc1c(-c2cc(Sc3ccc(F)cc3C#N)c3c(C#N)cnn3c2)cnn1[C@@H]1CCC[C@H](O)C1` [Example 499, 4-((2-cyano-4-fluorophenyl)thio)-6-(1-((1R,3S)-3-hydroxycyclohexyl)-5-methyl-1H-pyrazol-4-yl)pyrazolo[1,5-a]pyridine-3-carbonitrile] is 2-fold lower in IC50: 2 nM for the first, 1 nM for the second.

`C[C@]1(O)CC[C@@H](n2cc(-c3cc(Sc4ccc(F)cc4C#N)c4c(C#N)cnn4c3)cn2)CC1` [Example 500, 4-((2-cyano-4-fluorophenyl)thio)-6-(1-((1s,4s)-4-hydroxy-4-methylcyclohexyl)-1H-pyrazol-4-yl)pyrazolo[1,5-a]pyridine-3-carbonitrile] and `C[C@]1(O)CC[C@H](n2cc(-c3cc(Sc4ccc(F)cc4C#N)c4c(C#N)cnn4c3)cn2)CC1` [Example 501, 4-((2-cyano-4-fluorophenyl)thio)-6-(1-((1r,4r)-4-hydroxy-4-methylcyclohexyl)-1H-pyrazol-4-yl)pyrazolo[1,5-a]pyridine-3-carbonitrile] are the same in IC50: 1 nM for the first, 1 nM for the second.

`C[C@@H](O)C(=O)N1CCC(n2cc(-c3cc(Sc4ccc(F)cc4C#N)c4c(C#N)cnn4c3)cn2)CC1` [Example 502, (R)-4-((2-cyano-4-fluorophenyl)thio)-6-(1-(1-(2-hydroxypropanoyl)piperidin-4-yl)-1H-pyrazol-4-yl)pyrazolo[1,5-a]pyridine-3-carbonitrile] and `Cc1c(-c2cc(Sc3ccc(F)cc3C#N)c3c(C#N)cnn3c2)cnn1[C@H]1CCCN(C(=O)[C@@H](C)O)C1` [Example 512, 4-((2-cyano-4-fluorophenyl)thio)-6-(1-((S)-1-((R)-2-hydroxypropanoyl)piperidin-3-yl)-5-methyl-1H-pyrazol-4-yl)pyrazolo[1,5-a]pyridine-3-carbonitrile] are the same in IC50: 1 nM for the first, 1 nM for the second.

`C[C@]1(O)CC[C@@H](n2cc(-c3cc(Sc4ccccc4C#N)c4c(C#N)cnn4c3)cn2)CC1` [Example 503, 4-((2-cyanophenyl)thio)-6-(1-((1s,4s)-4-hydroxy-4-methylcyclohexyl)-1H-pyrazol-4-yl)pyrazolo[1,5-a]pyridine-3-carbonitrile] and `C[C@]1(O)CC[C@H](n2cc(-c3cc(Sc4ccccc4C#N)c4c(C#N)cnn4c3)cn2)CC1` [Example 504, 4-((2-cyanophenyl)thio)-6-(1-((1r,4r)-4-hydroxy-4-methylcyclohexyl)-1H-pyrazol-4-yl)pyrazolo[1,5-a]pyridine-3-carbonitrile] are within 1.5-fold of each other in IC50: 0.5 nM for the first, 0.4 nM for the second.

Going from `CN1CC(n2cc(-c3cc(Sc4ncccc4F)c4c(C#N)cnn4c3)cn2)CCC1=O` (centres unmarked) [Example 505, 4-((3-fluoropyridin-2-yl)thio)-6-(1-(1-methyl-6-oxopiperidin-3-yl)-1H-pyrazol-4-yl)pyrazolo[1,5-a]pyridine-3-carbonitrile] to `CN1CCC(n2cc(-c3cc(Sc4ncccc4F)c4c(C#N)cnn4c3)cn2)CC1=O` (centres unmarked) [Example 506, 4-((3-fluoropyridin-2-yl)thio)-6-(1-(1-methyl-2-oxopiperidin-4-yl)-1H-pyrazol-4-yl)pyrazolo[1,5-a]pyridine-3-carbonitrile], the IC50 falls from 3 nM to 1 nM (3-fold).

Compared with `N#Cc1nn([C@H]2CCCNC2)cc1-c1cc(Sc2ncccc2F)c2c(C#N)cnn2c1` [Example 507, (S)-6-(3-cyano-1-(piperidin-3-yl)-1H-pyrazol-4-yl)-4-((3-fluoropyridin-2-y)thio)pyrazolo[1,5-a]pyridine-3-carbonitrile], `N#Cc1cnn2cc(-c3cn([C@H]4CCCNC4)nc3CO)cc(Sc3ncccc3F)c12` [Example 530, 4-[(3-fluoro-2-pyridyl)sulfanyl]-6-[3-(hydroxymethyl)-1-[(3S)-3-piperidyl]pyrazol-4-yl]pyrazolo[1,5-a]pyridine-3-carbonitrile] is 2.3-fold higher in IC50: 30 nM for the first, 69 nM for the second. The first is the more potent here.

Compared with `CNC(=O)c1nn([C@H]2CCCNC2)cc1-c1cc(Sc2ncccc2F)c2c(C#N)cnn2c1` [Example 508, (S)-4-(3-cyano-4-((3-fluoropyridin-2-yl)thio)pyrazolo[1,5-a]pyridin-6-yl)-N-methyl-1-(piperidin-3-yl)-1H-pyrazole-3-carboxamide], `N#Cc1cnn2cc(-c3cn([C@H]4CCCNC4)c4nccnc34)cc(Sc3ncccc3F)c12` [Example 509, (S)-4-((3-fluoropyridin-2-yl)thio)-6-(5-(piperidin-3-yl)-5H-pyrrolo[2,3-b]pyrazin-7-yl)pyrazolo[1,5-a]pyridine-3-carbonitrile] is 2.2-fold lower in IC50: 48 nM for the first, 22 nM for the second. The second is the more potent here.

Compared with `CC(C)(CO)N1CC[C@H](n2cc(-c3cc(Sc4ncccc4F)c4c(C#N)cnn4c3)cn2)C1` [Example 510, (S)-4-((3-fluoropyridin-2-yl)thio)-6-(1-(1-(1-hydroxy-2-methylpropan-2-yl)pyrrolidin-3-yl)-1H-pyrazol-4-yl)pyrazolo[1,5-a]pyridine-3-carbonitrile], `N#Cc1cnn2cc(-c3cnn(CCCO)c3)cc(Sc3ncccc3F)c12` [Example 521, 4-((3-fluoropyridin-2-yl)thio)-6-(1-(3-hydroxypropyl)-1H-pyrazol-4-yl)pyrazolo[1,5-a]pyridine-3-carbonitrile] is 2-fold higher in IC50: 1 nM for the first, 2 nM for the second. The first is the more potent here.

First: Cc1c(-c2cc(Sc3ccc(F)cc3C#N)c3c(C#N)cnn3c2)cnn1CCO [Example 511, 4-((2-cyano-4-fluorophenyl)thio)-6-(1-(2-hydroxyethyl)-5-methyl-1H-pyrazol-4-yl)pyrazolo[1,5-a]pyridine-3-carbonitrile]
Second: Cc1c(-c2cc(Sc3ccc(F)cc3C#N)c3c(C#N)cnn3c2)cnn1[C@@H]1CCC(C)(C)NC1 [Example 528, 4-(2-cyano-4-fluoro-phenyl)sulfanyl-6-[1-[(3R)-6,6-dimethyl-3-piperidyl]-5-methyl-pyrazol-4-yl]pyrazolo[1,5-a]pyridine-3-carbonitrile]
The IC50 of the first is 3.2-fold higher: 8 nM for the first, 2.5 nM for the second. The second is the more potent here.

`CS(=O)(=O)N1CCC(n2cc(-c3cc(Sc4ccccc4C#N)c4c(C#N)cnn4c3)cn2)CC1` [Example 513, 4-((2-cyanophenyl)thio)-6-(1-(1-(methylsulfonyl)piperidin-4-yl)-1H-pyrazol-4-yl)pyrazolo[1,5-a]pyridine-3-carbonitrile] and `CS(=O)(=O)N1CCC[C@H](n2cc(-c3cc(Sc4ccccc4C#N)c4c(C#N)cnn4c3)cn2)C1` [Example 514, (S)-4-((2-cyanophenyl)thio)-6-(1-(1-(methylsulfonyl)piperidin-3-yl)-1H-pyrazol-4-yl)pyrazolo[1,5-a]pyridine-3-carbonitrile] are the same in IC50: 1 nM for the first, 1 nM for the second.

Going from `CN1CCC[C@H](n2cc(-c3cc(Sc4ccccc4C#N)c4c(C#N)cnn4c3)cn2)C1` [Example 515, (S)-4-((2-cyanophenyl)thio)-6-(1-(1-methylpiepridin-3-yl)-1H-pyrazol-4-yl)pyrazolo[1,5-a]pyridine-3-carbonitrile] to `CC(=O)N1CCC[C@H](n2cc(-c3cc(Sc4ccccc4C#N)c4c(C#N)cnn4c3)cn2)C1` [Example 516, (S)-6-(1-(1-acetylpiperidin-3-yl)-1H-pyrazol-4-yl)-4-((2-cyanophenyl)thio)pyrazolo [1,5-a]pyridine-3-carbonitrile], the IC50 falls from 1 nM to 0.4 nM (2.5-fold).

`N#Cc1ccccc1Sc1cc(-c2cnn([C@H]3CCCN(C(=O)CO)C3)c2)cn2ncc(C#N)c12` [Example 517, (S)-4-((2-cyanophenyl)thio)-6-(1-(1-(2-hydroxyacetyl)piperidin-3-yl)-1H-pyrazol-4-yl)pyrazolo[1,5-a]pyridine-3-carbonitrile] and `CC(=O)N1CCCC(n2cc(-c3cc(Sc4ccccc4C#N)c4c(C#N)cnn4c3)cn2)CC1` (centres unmarked) [Example 520, 6-(1-(1-acetylazepan-4-yl)-1H-pyrazol-4-yl)-4-((2-cyanophenyl)thio)pyrazolo [1,5-a]pyridine-3-carbonitrile] are the same in IC50: 0.4 nM for the first, 0.4 nM for the second.

First: N#Cc1ccccc1Sc1cc(-c2cnn([C@H]3CCCC[C@@H]3O)c2)cn2ncc(C#N)c12 [Example 518, 4-((2-cyanophenyl)thio)-6-(1-((1S,2S)-2-hydroxycyclohexyl)-1H-pyrazol-4-yl)pyrazolo[1,5-a]pyridine-3-carbonitrile]
Second: N#Cc1ccccc1Sc1cc(-c2cnn([C@@H]3CCCC[C@H]3O)c2)cn2ncc(C#N)c12 [Example 519, 4-((2-cyanophenyl)thio)-6-(1-((1R,2R)-2-hydroxycyclohexyl)-1H-pyrazol-4-yl)pyrazolo[1,5-a]pyridine-3-carbonitirle]
The IC50 of the first is 2.5-fold lower: 0.4 nM for the first, 1 nM for the second. The first is the more potent here.

`N#Cc1cnn2cc(-c3cnn(C[C@@H](O)CO)c3)cc(Sc3ncccc3F)c12` [Example 522, (R)-6-(1-(2,3-dihydroxypropyl)-1H-pyrazol-4-yl)-4-((3-fluoropyridin-2-yl)thio)pyrazolo[1,5-a]pyridine-3-carbonitrile] and `N#Cc1cnn2cc(-c3cnn(C[C@H](O)CO)c3)cc(Sc3ncccc3F)c12` [Example 523, (S)-6-(1-(2,3-dihydroxypropyl)-1H-pyrazol-4-yl)-4-((3-fluoropyridin-2-yl)thio)pyrazolo[1,5-a]pyridine-3-carbonitrile] are the same in IC50: 2 nM for the first, 2 nM for the second.

First: N#Cc1cnn2cc(-c3cnn(C(CO)CO)c3)cc(Sc3ncccc3F)c12 [Example 524, 6-(1-(1,3-dihydroxypropan-2-yl)-1H-pyrazol-4-yl)-4-((3-fluoropyridin-2-yl)thio)pyrazolo[1,5-a]pyridine-3-carbonitrile]
Second: N#Cc1ccccc1Sc1cc(-c2cnn(C(CO)CO)c2)cn2ncc(C#N)c12 [Example 525, 4-((2-cyanophenyl)thio)-6-(1-(1,3-dihydroxypropan-2-yl)-1H-pyrazol-4-yl)pyrazolo[1,5-a]pyridine-3-carbonitrile]
The IC50 of the first is 3-fold higher: 3 nM for the first, 1 nM for the second.

First: N#Cc1ccccc1Sc1cc(-c2ccc(N3CCNCC3)nc2)cn2ncc(C#N)c12 [Example 526, 4-((2-cyanophenyl)thio)-6-(6-(piperazin-1-yl)pyridin-3-yl)pyrazolo[1,5-a]pyridine-3-carbonitrile]
Second: CN1CCN(c2ccc(-c3cc(Sc4ccccc4C#N)c4c(C#N)cnn4c3)cn2)CC1 [Example 527, 4-((2-cyanophenyl)thio)-6-(6-(4-methylpiperazin-1-yl)pyridin-3-yl)pyrazolo[1,5-a]pyridine-3-carbonitrile]
The IC50 of the first is 2.5-fold higher: 1 nM for the first, 0.4 nM for the second.
